“And” between values parts separate entries of the source, which are not always exact repeats. Equal values may be shown once.
What was measured:
[1] = system: glycosyltransferase polypeptide of SEQ ID NO:1; test: SG bioconversion with UDP-xylose using enzyme of SEQ ID NO:1; type: biochemical, Oryza sativa Japonica Group; details: enzyme SEQ ID NO:1, 2 ug protein, 96 hours, 30C, runs 1 and 2
Experimental: (§1) Six steviolglycoside (SG) ‘acceptors’ Reb A, B, C, D, M and stevioside were tested using 2 glucosyltransferase enzymes (SEQ ID NO:1 and UGT76G1) known to play key roles in SG biosynthesis in stevia leaves and activated xylose (UDP-xylose).
(§2) UDP-xylose (98.9% purity) and UDP-rhamnose di-sodium salt (95% purity) were purchased from BOC Sciences. The activated sugar donors were prepared to 10 mM concentration with 0.05 M tris buffer and stored according to manufacturers' recommendations before use.
(§3) Enzyme of SEQ ID NO:1 and UGT76G1 enzyme were prepared in E. coli host cells as tagged proteins with expression induced by a chemical inducer. Following induction, the cells were incubated overnight and harvested. The cells were then lysed (either through sonication, mechanical disruption or chemical lysis) and the proteins purified through chromatography and stored frozen at −20C till use. Enzyme activities were confirmed using UDP-glucose in a preliminary test. Frozen enzyme solution was thawed right before use and returned to frozen storage after use.
(§4) SG materials were obtained from various sources with 90%+ purities. All SG materials were prepared at 20 mM with 90% DMSO and stored at ambient temperature. Final DMSO concentration in the reaction mixture was 4.5%.
(§5) Sucrose, previously shown to have a stabilizing effect on the bioconversion reaction, was prepared at 0.1 M with 0.05 M tris buffer.
(§6) Tris (tris(hydroxymethyl)aminomethane) buffer was prepared at 0.05 M, pH 7.3 and contained 3 mM each of MgCl2 and MnCl2 as co-factors.
(§7) Bioconversion reaction was carried out in a total of 100 uL sealed vials containing the Tris buffer, 0.1 μmoles of SG acceptor, 0.2 μmoles of activated sugar donor, 1 μmoles of sucrose and 2 ug protein of the enzymes. To each vial, buffer, sucrose, UDP-sugar donor, and SG acceptor were added in that order before finally the enzymes were added. For each SG donor, a control was included to contain the same amounts of sucrose and enzymes without UDP-sugar donors. After hand mixing, the vials were placed in a temperature-controlled shaker set at 30C and 100 rpm in rotating motion for 96 hours (4 days).
(§8) After 4 days of reaction, 0.9 mL of 80% acetonitrile was added to each vial and the resulting samples were analyzed in LC/MS. Xylose modification of the -19C(O)-β-Glc residue was confirmed.

[2] = molecular target: T1, UGT76G1 (Stevia rebaudiana, UniProt Q6VAB4); test: SG bioconversion with UDP-xylose using UGT76G1; type: biochemical; details: enzyme UGT76G1, 2 ug protein, 96 hours, 30C, runs 1 and 2
T1 construct: unspecified tag; made in house; host or cells: E. coli
T1 sequence (Q6VAB4 1-458): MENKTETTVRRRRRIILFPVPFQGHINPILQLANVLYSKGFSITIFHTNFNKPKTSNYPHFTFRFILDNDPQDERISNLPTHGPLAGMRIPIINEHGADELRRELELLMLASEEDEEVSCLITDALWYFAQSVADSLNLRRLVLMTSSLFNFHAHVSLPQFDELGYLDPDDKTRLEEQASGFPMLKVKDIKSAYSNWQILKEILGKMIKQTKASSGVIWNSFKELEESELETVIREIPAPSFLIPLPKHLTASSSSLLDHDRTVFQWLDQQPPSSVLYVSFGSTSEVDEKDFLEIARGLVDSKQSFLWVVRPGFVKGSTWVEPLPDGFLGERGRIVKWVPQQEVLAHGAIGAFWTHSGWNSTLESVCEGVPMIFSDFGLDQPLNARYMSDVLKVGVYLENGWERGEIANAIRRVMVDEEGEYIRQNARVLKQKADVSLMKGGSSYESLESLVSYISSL
Experimental: as §1, §2, §3, §4, §5, §6, §7, §8

[3] = cited from earlier work
[4] = system: purified protein of SEQ ID NO:1; test: Time course of glycosylation of Reb A using SEQ ID NO:1 and activated sugars; type: biochemical, Oryza sativa Japonica Group
Experimental: as §7, §8
The ability of SEQ ID NO:1 to glycosylate Reb A with different activated sugars used at different concentrations was examined, with the reaction products formed being measured over the course of the reaction.
Purified protein of SEQ ID NO:1 was used with UDP-glucose, UDP-xylose, and UDP-rhamnose di-sodium salts, and the reagents and reaction conditions were as described in Example 1.

[5] = Glycosyltransferase assay of SEQ ID NO:1 homologs and variants (IVTT enzymes) on Reb A; type: biochemical; details: Reb A acceptor, SEQ ID1 = 100%; for Activity relative to the activity of SEQ ID NO:1, Glucose: UDP-glucose; for Activity relative to the activity of SEQ ID NO:1, Xylose: UDP-xylose
Experimental: Candidate xylosyltransferase enzymes are produced in vitro using the PURExpress In Vitro Protein Synthesis kit from New England Biolabs (NEB #E6800) according to the manufacturer's instructions, including 250 ng plasmid DNA and the addition of 20 units RNase Inhibitor, Murine (NEB #M0314).
The steviol glycoside (SG) ‘acceptors’ Reb A was tested using 4 glucosyltransferase enzymes (SEQ ID NOs: 1-4) homologous to glucosyltransferases in SG biosynthesis in stevia leaves.
UDP-xylose (98.9% purity) was purchased from BOC Sciences. The activated sugar donors were prepared to 10 mM concentration with 0.05 M tris buffer and stored according to manufacturers' recommendations before use. SG materials were obtained from various sources with 90%+ purities. All SG materials were prepared at 20 mM with 90% DMSO and stored at ambient temperature. Final DMSO concentration in the reaction mixture was 4.5%.
as §6
Enzymes were produced via in vitro transcription-translation (IVTT) and activities were confirmed using UDP-glucose in a preliminary test. Bioconversion reaction was carried out in a total of 100 μL sealed vials containing the Tris buffer, 0.1 μmoles of SG acceptor, 0.2 μmoles of activated sugar donor, 1 μmoles of sucrose and 2 μg protein of the enzymes. To each vial, buffer, UDP-sugar donor, SG acceptor were added in that order before, finally, the enzymes were added. For each SG donor, a control was included to contain the same amounts of enzymes without UDP-sugar donors. […]
[…] Xylose modification of the -19C(O)-β-Glc residue was confirmed.
Activity of SEQ ID NOs: 2-4 is expressed relative to the activity of SEQ ID NO:1. […] [SEQ ID NO:3 was run more than once in this experiment,]

Molecule: C=C1C[C@@]23CC[C@H]4[C@@](C)(CCC[C@@]4(C)C(=O)O[C@@H]4O[C@H](CO)[C@@H](O)[C@H](O)[C@H]4O)[C@@H]2CC[C@]1(O[C@@H]1O[C@H](CO)[C@@H](O)[C@H](O)[C@H]1O[C@@H]1O[C@H](CO)[C@@H](O)[C@H](O)[C@H]1O)C3 [Stevioside, stevioside]
- % SG bioconversion with UDP-xylose [1]: 85.9% and 90.2%
- % SG bioconversion with UDP-xylose ([1]; listed as stevioside): very high conversion
- % SG bioconversion with UDP-xylose [2]: 40.5% and 39.0%

Molecule: rebaudioside C [Reb C]
- sweetness relative to glucose ([3]; times sweeter than glucose): 30 times
- % SG bioconversion with UDP-xylose [2]: 11.0% and 10.1%

Molecule: C=C1C[C@@]23CC[C@H]4[C@@](C)(CCC[C@@]4(C)C(=O)O[C@@H]4O[C@H](CO)[C@@H](O)[C@H](O)[C@H]4O)[C@@H]2CC[C@]1(O[C@@H]1O[C@H](CO)[C@@H](O)[C@H](O[C@@H]2O[C@H](CO)[C@@H](O)[C@H](O)[C@H]2O)[C@H]1O[C@@H]1O[C@H](CO)[C@@H](O)[C@H](O)[C@H]1O)C3 [Reb A, rebaudioside A]
- glucosylation and xylosylation plateaued after ([4]; 1 mM activated sugars): 20 min
- Rhamnosylation using UDP-rhamnose compared with glucosylation and xylosylation ([4]; 2 mM activated sugars): significantly lower
- glucosylation and xylosylation plateaued after ([4]; 2 mM activated sugars): 20 min
- % Reb A bioconversion ([4]; UDP-Glucose (1 mM), 0 hours): 0%
- % Reb A bioconversion ([4]; UDP-Glucose (1 mM), 18 hours): 68.47%
- % Reb A bioconversion ([4]; UDP-Glucose (1 mM), 48 hours): 68.6%
- % Reb A bioconversion ([4]; UDP-Glucose (1 mM), 96 hours): 68.1%
- % Reb A bioconversion ([4]; UDP-Glucose (2 mM), 0 hours): 0%
- % Reb A bioconversion ([4]; UDP-Glucose (2 mM), 18 hours): 84.93%
- % Reb A bioconversion ([4]; UDP-Glucose (2 mM), 48 hours): 83.9%
- % Reb A bioconversion ([4]; UDP-Glucose (2 mM), 96 hours): 82.1%
- % Reb A bioconversion ([4]; UDP-Rhamnose (2 mM), 0 hours): 0%
- % Reb A bioconversion ([4]; UDP-Rhamnose (2 mM), 18 hours): 14.7%
- % Reb A bioconversion ([4]; UDP-Rhamnose (2 mM), 48 hours): 25%
- % Reb A bioconversion ([4]; UDP-Rhamnose (2 mM), 96 hours): 30%
- % Reb A bioconversion ([4]; UDP-Xylose (1 mM), 0 hours): 0%
- % Reb A bioconversion ([4]; UDP-Xylose (1 mM), 18 hours): 60.09%
- % Reb A bioconversion ([4]; UDP-Xylose (1 mM), 48 hours): 60.39%
- % Reb A bioconversion ([4]; UDP-Xylose (1 mM), 96 hours): 60.66%
- % Reb A bioconversion ([4]; UDP-Xylose (2 mM), 0 hours): 0%
- % Reb A bioconversion ([4]; UDP-Xylose (2 mM), 18 hours): 83.26%
- % Reb A bioconversion ([4]; UDP-Xylose (2 mM), 48 hours): 83.5%
- % Reb A bioconversion ([4]; UDP-Xylose (2 mM), 96 hours): 82.33%
- sweetness relative to sucrose ([3]; times sweeter than sucrose): 250-300 times

Molecule: C=C1C[C@@]23CC[C@H]4[C@@](C)(CCC[C@@]4(C)C(=O)O[C@@H]4O[C@H](CO)[C@@H](O)[C@H](O)[C@H]4O[C@@H]4O[C@H](CO)[C@@H](O)[C@H](O)[C@H]4O)[C@@H]2CC[C@]1(O[C@@H]1O[C@H](CO)[C@@H](O)[C@H](O[C@@H]2O[C@H](CO)[C@@H](O)[C@H](O)[C@H]2O)[C@H]1O[C@@H]1O[C@H](CO)[C@@H](O)[C@H](O)[C@H]1O)C3 [Reb D, Rebaudioside D]
- % SG bioconversion with UDP-xylose [1]: ~10%
- % SG bioconversion with UDP-xylose [2]: 0%

Molecule: C=C1C[C@@]23CC[C@H]4[C@@](C)(CCC[C@@]4(C)C(=O)O)[C@@H]2CC[C@]1(O[C@@H]1O[C@H](CO)[C@@H](O)[C@H](O[C@@H]2O[C@H](CO)[C@@H](O)[C@H](O)[C@H]2O)[C@H]1O[C@@H]1O[C@H](CO)[C@@H](O)[C@H](O)[C@H]1O)C3 [Reb B]
- % SG bioconversion with UDP-xylose [1]: 0%
- % SG bioconversion with UDP-xylose [2]: 0%

Molecule: C=C1C[C@@]23CC[C@H]4[C@@](C)(CCC[C@@]4(C)C(=O)O[C@@H]4O[C@H](CO)[C@@H](O)[C@H](O[C@@H]5O[C@H](CO)[C@@H](O)[C@H](O)[C@H]5O)[C@H]4O[C@@H]4O[C@H](CO)[C@@H](O)[C@H](O)[C@H]4O)[C@@H]2CC[C@]1(O[C@@H]1O[C@H](CO)[C@@H](O)[C@H](O[C@@H]2O[C@H](CO)[C@@H](O)[C@H](O)[C@H]2O)[C@H]1O[C@@H]1O[C@H](CO)[C@@H](O)[C@H](O)[C@H]1O)C3 [Reb M, Rebaudioside M]
- % SG bioconversion with UDP-xylose [1]: 0%
- % SG bioconversion with UDP-xylose [2]: 0%

B1: SEQ ID4: glucosyltransferase enzyme, 25% identity to SEQ ID NO:1 (protein, listed as Lycium barbarum)
chain: MGTEVTVHKNTLRVLMFPWLAYGHISPFLNVAKKLVDRGFLIYLCSTAINLKSTIKKIPEKYSDSIQLIELHLPELPELPPHYHTTNGLPPHLNHTLQKALKMSKPNFSKILQNLKPDLVIYDLLQQWAEGVANEQNIPAVKLLTSGAAVLSYFFNLVKKPGVEFPFPAIYLRKNELEKMSELLAQSAKDKEPDGVDPFADGNMQVMLMSTSRIIEAKYIDYFSGLSNWKVVPVGPPVQDPIADDADEMELIDWLGKKDENSTVFVSFGSEYFLSKEDREEIAFGLELSNVNFIWVARFPKGEEQNLEDALPKGFLERIGDRGRVLDKFAPQPRILNHPSTGGFISHCGWNSVMESVDFGVPIIAMPIHLDQPMNARLIVELGVAVEIVRDDYGKIHREEIAEILKDVIAGKSGENLKAKMRDISKNLKSIRDEEMDTAAEELIQLCKNSPKLK
- Activity relative to the activity of SEQ ID NO:1, Glucose ([5]; 18 hrs): 174%
- Activity relative to the activity of SEQ ID NO:1, Glucose ([5]; 48 hrs): 151%
- Activity relative to the activity of SEQ ID NO:1, Glucose ([5]; 96 hrs): 170%
- Activity relative to the activity of SEQ ID NO:1, Xylose ([5]; 18 hrs): 11.5%
- Activity relative to the activity of SEQ ID NO:1, Xylose ([5]; 48 hrs): 9.68%
- Activity relative to the activity of SEQ ID NO:1, Xylose ([5]; 96 hrs): 10.9%

Source: patent publication US20240182941A1, “XYLOSYLATED STEVIOL GLYCOSIDES AND ENZYMATIC METHODS FOR PRODUCTION” (CARGILL, INCORPORATED, priority 2021, published 2024)
